Laboratory results published in patent US6693137B1, “Sulphonamide derivatives” (Eli Lilly and Company, priority 1998, dated 2004).

Tests used:
human GluR4B receptor = target: T1, human GluR4B receptor (Homo sapiens, UniProt P48058); assay: potentiation of agonist-induced excitability of human GluR4B receptor expressed in HEK 293 cells; assay type: cell-based
T1 construct: expressed in transfected cells
Excerpt: The ability of compounds of formula I to potentiate glutamate receptor-mediated response may be determined using fluorescent calcium indicator dyes (Molecular Probes, Eugene, Oreg., Fluo-3) and by measuring glutamate-evoked efflux of calcium into GluR^4 transfected HEK293 cells, as described in more detail below.
In one test, 96 well plates containing confluent monolayers of HEK cells stably expressing human GluR4B (obtained as described in European Patent Application Publication Number EP-A1-583917) are prepared. The tissue culture medium in the wells is then discarded, and the wells are each washed once with 200 μl of buffer (glucose, 10 mM, sodium chloride, 138 mM, magnesium chloride, 1 mM, potassium chloride, 5 mM, calcium chloride, 5 mM, N-[2-hydroxyethyl]piperazine-N-[2-ethanesulfonic acid], 10 mM, to pH 7.1 to 7.3). […]
Each test is then performed as follows. […] A second fluorescent reading is taken after 5 minutes incubation. 15 μl of 400 μM glutamate solution is then added to each well (final glutamate concentration 100 μM), and a third reading is taken. The activities of test compounds and cyclothiazide solutions are determined by subtracting the second from the third reading (fluorescence due to addition of glutamate in the presence or absence of test compound or cyclothiazide) and are expressed relative to enhance fluorescence produced by 100 μM cyclothiazide.

T1 sequence (P48058 21-902): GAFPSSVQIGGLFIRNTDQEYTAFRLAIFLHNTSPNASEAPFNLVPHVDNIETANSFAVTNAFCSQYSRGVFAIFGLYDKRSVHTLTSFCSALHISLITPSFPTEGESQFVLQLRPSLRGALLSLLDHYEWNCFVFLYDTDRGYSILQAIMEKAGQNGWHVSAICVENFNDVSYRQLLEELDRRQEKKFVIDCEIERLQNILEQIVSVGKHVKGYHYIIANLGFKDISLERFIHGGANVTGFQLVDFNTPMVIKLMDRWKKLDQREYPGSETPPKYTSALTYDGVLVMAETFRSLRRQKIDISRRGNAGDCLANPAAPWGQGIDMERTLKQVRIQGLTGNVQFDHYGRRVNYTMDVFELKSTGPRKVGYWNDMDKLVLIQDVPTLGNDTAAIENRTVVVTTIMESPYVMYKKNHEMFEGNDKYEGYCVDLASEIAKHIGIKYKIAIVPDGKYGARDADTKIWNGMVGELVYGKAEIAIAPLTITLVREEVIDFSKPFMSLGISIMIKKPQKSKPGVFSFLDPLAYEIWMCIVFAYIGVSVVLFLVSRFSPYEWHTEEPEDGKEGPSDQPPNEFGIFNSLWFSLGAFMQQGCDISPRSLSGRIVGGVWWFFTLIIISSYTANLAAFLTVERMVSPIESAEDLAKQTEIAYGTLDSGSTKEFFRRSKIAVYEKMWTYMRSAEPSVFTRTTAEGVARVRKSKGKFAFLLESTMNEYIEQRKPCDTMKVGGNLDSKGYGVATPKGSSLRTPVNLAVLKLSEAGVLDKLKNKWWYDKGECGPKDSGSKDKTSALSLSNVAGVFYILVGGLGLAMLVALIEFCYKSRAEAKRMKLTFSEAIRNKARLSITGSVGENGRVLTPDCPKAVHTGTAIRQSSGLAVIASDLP

| SMILES | melting point [°C] | potentiation of agonist-induced excitability (human GluR4B receptor) |
| --- | --- | --- |
| CC(CNS(=O)(=O)C(C)C)c1ccc(-c2ccc(OCCN3CCCC3)cc2)cc1.Cl (stereo not drawn) | 172 to 173 | – |
| CC(CNS(=O)(=O)C(C)C)c1ccc(NC(=O)COc2ccccn2)cc1 (stereo not drawn) | 176 to 178 | – |
| NS(=O)(=O)c1cc2c(cc1Cl)NC(C1CC3C=CC1C3)NS2(=O)=O (stereo not drawn) [cyclothiazide] | – | potentiate agonist-induced excitability |
| CC(CNS(=O)(=O)C(C)C)c1ccc(NC(=O)CN2CCCCC2)cc1 (stereo not drawn) | 139 to 141 | – |
| CCOCC(=O)Nc1ccc(C(C)CNS(=O)(=O)C(C)C)cc1 (stereo not drawn) | 113 to 116 | – |
| CC(CNS(=O)(=O)C(C)C)c1ccc(NC(=O)CN(C)C)cc1.O=C(O)/C=C\C(=O)O (stereo not drawn) | 120 to 122 | – |
